Assay results as given in PubChem BioAssay (NCI).
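A five-concentration, 48-hour dose response in 96-well plates underlies each endpoint, interpolated linearly between surrounding concentrations. GI50 = concentration required for 50% inhibition of growth. At the TGI there is no net growth.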

Tests used:
Assay in all cases: NCI tumour cell line growth inhibition, 48 h
786-0 renal = system: 786-0 renal
A549 NSCLC = system: A549 NSCLC
ACHN renal = system: ACHN renal
BT-549 breast = system: BT-549 breast
CAKI-1 renal = system: CAKI-1 renal
COLO 205 colon = system: COLO 205 colon
DU-145 prostate = system: DU-145 prostate
EKVX NSCLC = system: EKVX NSCLC
HCC-2998 colon = system: HCC-2998 colon
HCT-116 colon = system: HCT-116 colon
HCT-15 colon = system: HCT-15 colon
HL-60(TB) leukemia = system: HL-60(TB) leukemia
HOP-62 NSCLC = system: HOP-62 NSCLC
HT29 colon = system: HT29 colon
IGROV1 ovarian = system: IGROV1 ovarian
K-562 leukemia = system: K-562 leukemia
KM12 colon = system: KM12 colon
LOX IMVI melanoma = system: LOX IMVI melanoma
M14 melanoma = system: M14 melanoma
MALME-3M melanoma = system: MALME-3M melanoma
MCF7 breast = system: MCF7 breast
MDA-MB-435 = system: MDA-MB-435
MOLT-4 leukemia = system: MOLT-4 leukemia
NCI-H23 lung = system: NCI-H23 lung
NCI-H460 lung = system: NCI-H460 lung
NCI-H522 lung = system: NCI-H522 lung
NCI/ADR-RES ovarian = system: NCI/ADR-RES ovarian
OVCAR-3 ovarian = system: OVCAR-3 ovarian
OVCAR-4 ovarian = system: OVCAR-4 ovarian
OVCAR-5 ovarian = system: OVCAR-5 ovarian
OVCAR-8 ovarian = system: OVCAR-8 ovarian
PC-3 prostate = system: PC-3 prostate
RPMI-8226 leukemia = system: RPMI-8226 leukemia
RXF 393 renal = system: RXF 393 renal
SF-268 CNS = system: SF-268 CNS
SF-295 CNS = system: SF-295 CNS
SF-539 CNS = system: SF-539 CNS
SK-MEL-2 melanoma = system: SK-MEL-2 melanoma
SK-MEL-28 melanoma = system: SK-MEL-28 melanoma
SK-OV-3 ovarian = system: SK-OV-3 ovarian
SNB-19 CNS = system: SNB-19 CNS
SR leukemia = system: SR leukemia
T-47D breast = system: T-47D breast
TK-10 renal = system: TK-10 renal
U251 CNS = system: U251 CNS
UACC-257 melanoma = system: UACC-257 melanoma
UACC-62 melanoma = system: UACC-62 melanoma
UO-31 renal = system: UO-31 renal

Molecule c1cc2c(s1)SSSSS2 has a GI50 (786-0 renal) of 14.9 µM, a TGI (786-0 renal) of 29.1 µM and a GI50 (A549 NSCLC) of 31.8 µM. It also gave a TGI (A549 NSCLC) greater than 100 µM, a GI50 (ACHN renal) of 15.5 µM and a TGI (ACHN renal) of 31.7 µM. The GI50 (BT-549 breast) was 33.8 µM, the TGI (BT-549 breast) was 85.9 µM and the GI50 (CAKI-1 renal) was 17.8 µM. The TGI (CAKI-1 renal) was 36.6 µM, the GI50 (COLO 205 colon) was 17.6 µM and the TGI (COLO 205 colon) was 46.6 µM. For the same molecule, the GI50 (DU-145 prostate) was 17.1 µM, the TGI (DU-145 prostate) was 34.1 µM and the GI50 (EKVX NSCLC) was 34.6 µM. It also gave a TGI (EKVX NSCLC) of 68.2 µM, a GI50 (HCC-2998 colon) of 24 µM and a TGI (HCC-2998 colon) of 39.9 µM. The GI50 (HCT-116 colon) was 9.06 µM, the TGI (HCT-116 colon) was 21.2 µM and the GI50 (HCT-15 colon) was 15.8 µM. For the same molecule, the TGI (HCT-15 colon) was 85.9 µM, the GI50 (HL-60(TB) leukemia) was 11.8 µM and the TGI (HL-60(TB) leukemia) was greater than 100 µM. It also gave a GI50 (HOP-62 NSCLC) of 28.2 µM, a TGI (HOP-62 NSCLC) of 55.3 µM and a GI50 (HT29 colon) of 23.3 µM. It also gave a TGI (HT29 colon) of 41.4 µM, a GI50 (IGROV1 ovarian) of 19 µM and a TGI (IGROV1 ovarian) of 43.1 µM. For the same molecule, the GI50 (K-562 leukemia) was 16.1 µM, the TGI (K-562 leukemia) was greater than 100 µM and the GI50 (KM12 colon) was 19.3 µM. It also gave a TGI (KM12 colon) of 38.1 µM, a GI50 (LOX IMVI melanoma) of 11.9 µM and a TGI (LOX IMVI melanoma) of 40.3 µM. It also gave a GI50 (M14 melanoma) of 11.2 µM, a TGI (M14 melanoma) of 29.4 µM and a GI50 (MALME-3M melanoma) of 17.1 µM. For the same molecule, the TGI (MALME-3M melanoma) was 40.2 µM, the GI50 (MCF7 breast) was 16.4 µM and the TGI (MCF7 breast) was 35 µM. It also gave a GI50 (MDA-MB-435) of 18.9 µM, a TGI (MDA-MB-435) of 35.8 µM and a GI50 (MOLT-4 leukemia) of 18.8 µM. The TGI (MOLT-4 leukemia) was greater than 100 µM, the GI50 (NCI-H23 lung) was 14.6 µM and the TGI (NCI-H23 lung) was 30.7 µM. The GI50 (NCI-H460 lung) was 19.9 µM, the TGI (NCI-H460 lung) was 42.2 µM and the GI50 (NCI-H522 lung) was 27.8 µM. For the same molecule, the TGI (NCI-H522 lung) was 81.8 µM, the GI50 (NCI/ADR-RES ovarian) was 22.8 µM and the TGI (NCI/ADR-RES ovarian) was 46.4 µM. It also gave a GI50 (OVCAR-3 ovarian) of 18 µM, a TGI (OVCAR-3 ovarian) of 34.5 µM and a GI50 (OVCAR-4 ovarian) of 24.2 µM. For the same molecule, the TGI (OVCAR-4 ovarian) was 46.9 µM, the GI50 (OVCAR-5 ovarian) was 21.1 µM and the TGI (OVCAR-5 ovarian) was 36.6 µM. It also gave a GI50 (OVCAR-8 ovarian) of 36.3 µM, a TGI (OVCAR-8 ovarian) greater than 100 µM and a GI50 (PC-3 prostate) of 16.5 µM. For the same molecule, the TGI (PC-3 prostate) was 39.6 µM, the GI50 (RPMI-8226 leukemia) was 7.06 µM and the TGI (RPMI-8226 leukemia) was 29.4 µM. For the same molecule, the GI50 (RXF 393 renal) was 18.4 µM, the TGI (RXF 393 renal) was 41.5 µM and the GI50 (SF-268 CNS) was 19.1 µM. The TGI (SF-268 CNS) was 38.6 µM, the GI50 (SF-295 CNS) was 18.3 µM and the TGI (SF-295 CNS) was 36.9 µM. The GI50 (SF-539 CNS) was 21.7 µM, the TGI (SF-539 CNS) was 39.6 µM and the GI50 (SK-MEL-2 melanoma) was 29.3 µM. It also gave a TGI (SK-MEL-2 melanoma) greater than 100 µM, a GI50 (SK-MEL-28 melanoma) of 23 µM and a TGI (SK-MEL-28 melanoma) of 41.9 µM. For the same molecule, the GI50 (SK-OV-3 ovarian) was 34.5 µM, the TGI (SK-OV-3 ovarian) was 72.7 µM and the GI50 (SNB-19 CNS) was 22.9 µM. For the same molecule, the TGI (SNB-19 CNS) was 47 µM, the GI50 (SR leukemia) was 3.17 µM and the TGI (SR leukemia) was 22.8 µM. It also gave a GI50 (T-47D breast) of 13 µM, a TGI (T-47D breast) of 32.4 µM and a GI50 (TK-10 renal) of 16.7 µM. For the same molecule, the TGI (TK-10 renal) was 33.5 µM, the GI50 (U251 CNS) was 17.6 µM and the TGI (U251 CNS) was 39.6 µM. For the same molecule, the GI50 (UACC-257 melanoma) was 35.2 µM, the TGI (UACC-257 melanoma) was greater than 100 µM and the GI50 (UACC-62 melanoma) was 13.8 µM. It also gave a TGI (UACC-62 melanoma) of 28.1 µM, a GI50 (UO-31 renal) of 17.6 µM and a TGI (UO-31 renal) of 33.7 µM.
